The record followed here is patent US20230167127A1, “COMPOUNDS AND THEIR USE IN THE TREATMENT OF BACTERIAL INFECTION” (Hoffmann-La Roche Inc., priority 2020, published 2023).

A value given as a limit tells only on which side of the number the result lay.

The subject of one assay is Escherichia coli ATCC 25922. Put plainly: 50% growth inhibitory concentration (IC50) determination, Iso-Sensitest broth dilution. It counts as cell-based. The note with it: Escherichia coli, ATCC25922, 16 h, strain Escherichia coli ATCC 25922; 10-point broth dilution, optical density at 600 nm over 16 h; read-out: Escherichia coli growth inhibition IC50. Summed up:
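Growth was tracked as optical density at 600 nm every 20 minutes for 16 h at 35±2° C. Compounds from DMSO stocks were serially diluted twofold over 10 points (e.g. 50–0.097 μM final) in Iso-Sensitest broth. Inhibition computed in log-phase growth to give IC50.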
(In general: Broth dilution looks for growth in wells or tubes with falling amounts of substance.)
On to `Cc1nonc1COc1cc(C#N)c2c(c1)CC(CNCCC1CN(c3cnc4c(n3)NC(=O)CO4)C(=O)O1)C2` (stereo not shown) [Example 392, 6-[(4-methyl-1,2,5-oxadiazol-3-yl)methoxy]-2-[[2-[2-oxo-3-(3-oxo-4H-pyrazino[2,3-b][1,4]oxazin-6-yl)-1,3-oxazolidin-5-yl]ethylamino]methyl]-2,3-dihydro-1H-indene-4-carbonitrile], for which the IC50 (as a rule, the concentration that gives 50% inhibition) was < 0.0977 µM.

In the case of `NCCOc1cc(Cl)c2c(c1)CC(NCCCC1CN(c3ccc4c(n3)NC(=O)CO4)C(=O)O1)C2` (stereo not shown) [Example 179, 6-[5-[3-[[6-(2-aminoethoxy)-4-chloro-2,3-dihydro-1H-inden-2-yl]amino]propyl]-2-oxo-1,3-oxazolidin-3-yl]-4H-pyrido[3,2-b][1,4]oxazin-3-one], the IC50 turned out to be 0.103 µM.

As to `O=C1COc2ccc(N3CC([C@H]4C[C@H](NC5Cc6cccc(Cl)c6C5)C4)OC3=O)nc2N1` (stereo partly drawn) [Example 17, 6-[5-[trans-3-[(4-chloro-2,3-dihydro-1H-inden-2-yl)amino]cyclobutyl]-2-oxo-1,3-oxazolidin-3-yl]-4H-pyrido[3,2-b][1,4]oxazin-3-one], the IC50 came to 0.823 µM.

`N[C@@H]1c2cc(OCC3(N)CC3)cc(Cl)c2C[C@H]1CN1CCC2(CC1)CN(c1ccc3c(n1)NC(=O)CO3)C(=O)O2` (racemic) [Example 274, 6-[2-Oxo-8-[[rac-1,2-trans-1-amino-6-[(1-aminocyclopropyl)methoxy]-4-chloro-2,3-dihydro-1H-inden-2-yl]methyl]-1-oxa-3,8-diazaspiro[4.5]decan-3-yl]-4H-pyrido[3,2-b][1,4]oxazin-3-one; formic acid]: the half-inhibitory concentration (IC50) is < 0.0977 µM.

For `O=C1COc2ccc(N3CC(CCNCC4Cc5ccccc5C4)OC3=O)nc2N1` (stereo not shown) [Example 87, 6-[5-[2-(2,3-dihydro-1H-inden-2-ylmethylamino)ethyl]-2-oxo-1,3-oxazolidin-3-yl]-4H-pyrido[3,2-b][1,4]oxazin-3-one], the 50% inhibitory concentration (IC50) is 0.584 µM.

Take `NC1(CCNCC2Cc3cccc(Cl)c3C2)CC(=O)N(c2ccc3c(n2)NC(=O)CO3)C1` (stereo not shown) [Example 140, 6-[4-amino-4-[2-[(4-chloro-2,3-dihydro-1H-inden-2-yl)methylamino]ethyl]-2-oxopyrrolidin-1-yl]-4H-pyrido[3,2-b][1,4]oxazin-3-one]: the concentration for half-maximal inhibition (IC50) worked out at 0.314 µM.

For the compound `COc1cnc(Cl)c2c1CC(CNCCC1CN(c3ccc4c(n3)NC(=O)CO4)C(=O)O1)C2` (stereo not shown) [Example 57, 6-[5-[2-[(1-chloro-4-methoxy-6,7-dihydro-5H-cyclopenta[c]pyridin-6-yl)methylamino]ethyl]-2-oxo-1,3-oxazolidin-3-yl]-4H-pyrido[3,2-b][1,4]oxazin-3-one], the IC50 was determined as 0.328 µM.

Consider `Cc1ncc(F)c2c1CC(NCCCc1cn(-c3cnc4c(n3)NC(=O)CO4)c(=O)o1)C2` (single isomer, unassigned; enantiomer a) [Example 367, 6-[5-[3-[(4-Fluoro-1-methyl-6,7-dihydro-5H-cyclopenta[c]pyridin-6-yl)amino]propyl]-2-oxo-1,3-oxazol-3-yl]-4H-pyrazino[2,3-b][1,4]oxazin-3-one, Enantiomer A], for which the IC50 was < 0.0977 µM.

As to `Cc1ncc(F)c2c1CC(CN1CCC3(CN(c4ccc5c(n4)NC(=O)CO5)C(=O)O3)C(CO)C1)C2` (stereo not shown) [Example 277, 6-[8-[(4-fluoro-1-methyl-6,7-dihydro-5H-cyclopenta[c]pyridin-6-yl)methyl]-6-(hydroxymethyl)-2-oxo-1-oxa-3,8-diazaspiro[4.5]decan-3-yl]-4H-pyrido[3,2-b][1,4]oxazin-3-one], the IC50 was 0.628 µM.

For the compound `N#Cc1cccc2c1CC(CN1CCC3(CC1)CN(c1ccc4c(n1)NC(=O)CO4)C(=O)O3)C2` (stereo not shown) [Example 28, 2-[ [2-oxo-3-(3-oxo-4H-pyrido[3,2-b] [1,4]oxazin-6-yl)-1-oxa-3,8-diazaspiro[4.5]decan-8-yl]methyl]-2,3-dihydro-1H-indene-4-carbonitrile], the IC50 was < 0.0977 µM.

Regarding `N#Cc1cc(OCc2cc[nH]n2)cc2c1CC(CNCCC1CN(c3cnc4c(n3)NC(=O)CO4)C(=O)O1)C2` (stereo not shown) [Example 404, 2-[[2-[2-oxo-3-(3-oxo-4H-pyrazino[2,3-b][1,4]oxazin-6-yl)-1,3-oxazolidin-5-yl]ethylamino]methyl]-6-(1H-pyrazol-3-ylmethoxy)-2,3-dihydro-1H-indene-4-carbonitrile; formic acid], the IC50 was < 0.0977 µM.

Turning to `CNC(=O)COc1cc(C)c2c(c1C)CC(CNCCC1CN(c3ccc4c(n3)NC(=O)CO4)C(=O)O1)C2` (stereo not shown) [Example 112, 2 2-[[4,7-dimethyl-2-[[2-[2-oxo-3-(3-oxo-4H-pyrido[3,2-b][1,4]oxazin-6-yl)-1,3-oxazolidin-5-yl]ethylamino]methyl]-2,3-dihydro-1H-inden-5-yl]oxy]-N-methylacetamide], the IC50 is 0.303 µM.

Regarding `N#Cc1cccc2c1CC(CN[C@H]1C[C@]3(CN(c4ccc5c(n4)NC(=O)CO5)C(=O)O3)C1)C2` (stereo partly drawn) [Example 183, 2-[[[2,4-cis-6-oxo-7-(3-oxo-4H-pyrido[3,2-b][1,4]oxazin-6-yl)-5-oxa-7-azaspiro[3.4]octan-2-yl]amino]methyl]-2,3-dihydro-1H-indene-4-carbonitrile], the IC50 was found to be 0.153 µM.

In the case of `CS(=O)(=O)NCCOc1cc(C#N)c2c(c1)CC(CNCCC1CN(c3ccc4c(n3)NC(=O)CO4)C(=O)O1)C2` (stereo not shown) [Example 115, N-[2-[[7-cyano-2-[[2-[2-oxo-3-(3-oxo-4H-pyrido[3,2-b][1,4]oxazin-6-yl)-1,3-oxazolidin-5-yl]ethylamino]methyl]-2,3-dihydro-1H-inden-5-yl]oxy]ethyl]methanesulfonamide], the IC50 came out at 0.261 µM.

Regarding `NC(=O)COc1cc(F)c2c(c1)CC(CNCCC1CN(c3cnc4c(n3)NC(=O)CO4)C(=O)O1)C2` (stereo not shown) [Example 305, 2-[[7-fluoro-2-[[2-[2-oxo-3-(3-oxo-4H-pyrazino[2,3-b][1,4]oxazin-6-yl)-1,3-oxazolidin-5-yl]ethylamino]methyl]-2,3-dihydro-1H-inden-5-yl]oxy]acetamide], the IC50 is < 0.0977 µM.

In the case of `O=C1COc2ccc(N3CC(CCCNC4Cc5ccc(Cl)cc5C4)OC3=O)nc2N1` (stereo not shown) [Example 10, 6-[5-[3-[(5-chloro-2,3-dihydro-1H-inden-2-yl)amino]propyl]-2-oxo-1,3-oxazolidin-3-yl]-4H-pyrido[3,2-b][1,4]oxazin-3-one; formic acid], the IC50 worked out at 0.447 µM.

Consider `NC1(COc2ccc3c(c2Cl)CC(NCCCC2CN(c4ccc5c(n4)NC(=O)CO5)C(=O)O2)C3)CC1` (stereo not shown) [Example 119, 6-[5-[3-[[5-[(1-aminocyclopropyl)methoxy]-4-chloro-2,3-dihydro-1H-inden-2-yl]amino]propyl]-2-oxo-1,3-oxazolidin-3-yl]-4H-pyrido[3,2-b][1,4]oxazin-3-one; formic acid], for which the IC50 was < 0.0977 µM.

`N#Cc1cc(OCc2cnc[nH]2)cc2c1CC(CNCCC1CN(c3cnc4c(n3)NC(=O)CO4)C(=O)O1)C2` (stereo not shown) [Example 406, 6-(1H-imidazol-5-ylmethoxy)-2-[[2-[2-oxo-3-(3-oxo-4H-pyrazino[2,3-b][1,4]oxazin-6-yl)-1,3-oxazolidin-5-yl]ethylamino]methyl]-2,3-dihydro-1H-indene-4-carbonitrile; formic acid]: the IC50 amounted to 0.139 µM.

With `N#Cc1cccc2c1CC(CN1CC(C3CN(c4cnc5c(n4)NC(=O)CO5)C(=O)O3)C1)C2` (stereo not shown) [Example 76, 2-[[3-[2-oxo-3-(3-oxo-4H-pyrazino[2,3-b][1,4]oxazin-6-yl)-1,3-oxazolidin-5-yl]azetidin-1-yl]methyl]-2,3-dihydro-1H-indene-4-carbonitrile; formic acid], the IC50 was < 0.0977 µM.

`Cc1ncc(C#N)c2c1CC(NCCCc1cn(-c3cnc4c(n3)NC(=O)CO4)c(=O)o1)C2` (single isomer, unassigned; enantiomer a) [Example 321, 1-Methyl-6-[3-[2-oxo-3-(3-oxo-4H-pyrazino[2,3-b][1,4]oxazin-6-yl)-1,3-oxazol-5-yl]propylamino]-6,7-dihydro-5H-cyclopenta[c]pyridine-4-carbonitrile, Enantiomer A]: the IC50 was < 0.0977 µM.

Turning to `Cc1nc(OC[C@@H]2CCN2)c(C)c2c1CC(CNCCC1CN(c3ccc4c(n3)NC(=O)CO4)C(=O)O1)C2` (stereo partly drawn) [Example 200, 6-[5-[2-[[3-[[(2S)-azetidin-2-yl]methoxy]-1,4-dimethyl-6,7-dihydro-5H-cyclopenta[c]pyridin-6-yl]methylamino]ethyl]-2-oxo-1,3-oxazolidin-3-yl]-4H-pyrido[3,2-b][1,4]oxazin-3-one], the IC50 was 0.32 µM.

Staying with this assay, now noted: strain Escherichia coli ATCC 25922; 10-point broth dilution, optical density at 600 nm over 16 h; read-out: Escherichia coli growth inhibition IC50.
In the case of `N#Cc1cccc2c1CC(CNC1CCC3C(C1)OC(=O)N3c1ccc3c(n1)NC(=O)CO3)C2` (racemic) [Example 31, 2-[[[rac-3a,7a-trans-6,7a-cis-2-oxo-3-(3-oxo-4H-pyrido[3,2-b][1,4]oxazin-6-yl)-3a,4,5,6,7,7a-hexahydro-1,3-benzoxazol-6-yl]amino]methyl]-2,3-dihydro-1H-indene-4-carbonitrile], the IC50 turned out to be 0.156 µM.

Consider `O=C1COc2ccc(N3CC(CCNCC4Cc5cccc(Cl)c5C4)OC3=O)nc2N1` (single isomer, unassigned; isomer b) [Example 7, 6-[5-[2-[(4-chloro-2,3-dihydro-1H-inden-2-yl)methylamino]ethyl]-2-oxo-1,3-oxazolidin-3-yl]-4H-pyrido[3,2-b][1,4]oxazin-3-one, Isomer B; formic acid], for which the IC50 is < 0.0977 µM.

With `N#Cc1cccc2c1CC(CNCCC1OC(=O)N(c3ccc4c(n3)NC(=O)CO4)C1CN)C2` (racemic) [Example 149, 2-[[2-[rac-4,5-trans-4-(aminomethyl)-2-oxo-3-(3-oxo-4H-pyrido[3,2-b][1,4]oxazin-6-yl)-1,3-oxazolidin-5-yl]ethylamino]methyl]-2,3-dihydro-1H-indene-4-carbonitrile; formic acid], the half-maximal inhibitory concentration (IC50) came out at 0.904 µM.

With “2-[[2-[2-oxo-3-(3-oxo-4H-pyrazino[2,3-b][1,4]oxazin-6-yl)-1,3-oxazolidin-5-yl]ethylamino]methyl]-6-(1H-triazol-5-ylmethoxy)-2,3-dihydro-1H-indene-4-carbonitrile [Example 426]”, the IC50 is 0.156 µM.
